Reference: the NIST ThermoML archive (doi:10.1016/j.jct.2014.12.020)

Experiment: wn = mass fraction of the nth substance listed
Settings: 100 kPa, Liquid; for viscosity: Concentric cylinders viscometry; for mass density: Vibrating tube method

C[C@H](O)C(=O)[O-].C[N+](C)(C)CCO + O
Settings	mass density [kg/m3]	viscosity [mPa·s]
293.15 K, w2 = 0.004	1140.9	3661.3
293.15 K, w2 = 0.011	1142	2703
293.15 K, w2 = 0.02	1142.3	1543.3
293.15 K, w2 = 0.029	1141.9	1408.3
293.15 K, w2 = 0.045	1140.9	888
293.15 K, w2 = 0.066	1139.9	546.3
293.15 K, w2 = 0.077	1139.3	421.4
293.15 K, w2 = 0.121	1137	201.3
293.15 K, w2 = 0.167	1135.4	119.8
293.15 K, w2 = 0.218	1131.4	70.5
293.15 K, w2 = 0.24	1127.4	48
298.15 K, w2 = 0.004	1137.8	2310.1
298.15 K, w2 = 0.011	1138.8	1732.1
298.15 K, w2 = 0.02	1139	1021
298.15 K, w2 = 0.029	1138.5	936.5
298.15 K, w2 = 0.045	1137.5	604.3
298.15 K, w2 = 0.066	1136.5	380.6
298.15 K, w2 = 0.077	1136	297.1
298.15 K, w2 = 0.121	1133.7	146.7
298.15 K, w2 = 0.167	1132.1	89.1
298.15 K, w2 = 0.218	1128.1	53.6
298.15 K, w2 = 0.24	1124.1	37.1
303.15 K, w2 = 0.004	1134.7	1510.1
303.15 K, w2 = 0.011	1135.6	1150.1
303.15 K, w2 = 0.02	1135.7	697.5
303.15 K, w2 = 0.029	1135.2	642.3
303.15 K, w2 = 0.045	1134.2	423.6
303.15 K, w2 = 0.066	1133.3	272.7
303.15 K, w2 = 0.077	1132.7	215.2
303.15 K, w2 = 0.121	1130.5	109.4
303.15 K, w2 = 0.167	1128.9	67.8
303.15 K, w2 = 0.218	1124.8	41.6
303.15 K, w2 = 0.24	1120.8	29.2
308.15 K, w2 = 0.004	1131.7	1019.4
308.15 K, w2 = 0.011	1132.4	787.6
308.15 K, w2 = 0.02	1132.4	490.6
308.15 K, w2 = 0.029	1131.8	453.5
308.15 K, w2 = 0.045	1130.9	305
308.15 K, w2 = 0.066	1130.1	200.4
308.15 K, w2 = 0.077	1129.6	159.8
308.15 K, w2 = 0.121	1127.3	83.5
308.15 K, w2 = 0.167	1125.8	52.6
308.15 K, w2 = 0.218	1121.6	32.9
308.15 K, w2 = 0.24	1117.6	23.4
313.15 K, w2 = 0.004	1128.6	708.4
313.15 K, w2 = 0.011	1129.1	554.7
313.15 K, w2 = 0.02	1129.2	354.1
313.15 K, w2 = 0.029	1128.6	328.4
313.15 K, w2 = 0.045	1127.8	225
313.15 K, w2 = 0.066	1126.9	150.7
313.15 K, w2 = 0.077	1126.4	121.4
313.15 K, w2 = 0.121	1124.2	65
313.15 K, w2 = 0.167	1122.6	41.7
313.15 K, w2 = 0.218	1118.5	26.4
313.15 K, w2 = 0.24	1114.5	18.9
318.15 K, w2 = 0.004	1125.4	505.4
318.15 K, w2 = 0.011	1125.9	400.7
318.15 K, w2 = 0.02	1126.1	261.6
318.15 K, w2 = 0.029	1125.5	243.5
318.15 K, w2 = 0.045	1124.7	169.7
318.15 K, w2 = 0.066	1123.8	115.6
318.15 K, w2 = 0.077	1123.3	94
318.15 K, w2 = 0.121	1121	51.5
318.15 K, w2 = 0.167	1119.5	33.6
318.15 K, w2 = 0.218	1115.2	21.6
318.15 K, w2 = 0.24	1111.2	15.8
323.15 K, w2 = 0.004	1122.3	369.4
323.15 K, w2 = 0.011	1122.7	296.2
323.15 K, w2 = 0.02	1123	197.4
323.15 K, w2 = 0.029	1122.4	184.4
323.15 K, w2 = 0.045	1121.6	130.6
323.15 K, w2 = 0.066	1120.8	90.4
323.15 K, w2 = 0.077	1120.2	74.1
323.15 K, w2 = 0.121	1118	41.5
323.15 K, w2 = 0.167	1116.3	27.4
323.15 K, w2 = 0.218	1112	17.9
323.15 K, w2 = 0.24	1108	13.2
328.15 K, w2 = 0.004	1119.2	275.9
328.15 K, w2 = 0.011	1119.8	223.5
328.15 K, w2 = 0.02	1120.1	151.8
328.15 K, w2 = 0.029	1119.4	142.3
328.15 K, w2 = 0.045	1118.6	102.3
328.15 K, w2 = 0.066	1117.7	71.9
328.15 K, w2 = 0.077	1117.1	59.3
328.15 K, w2 = 0.121	1114.9	33.9
328.15 K, w2 = 0.167	1113.2	22.7
328.15 K, w2 = 0.218	1108.8	15
328.15 K, w2 = 0.24	1104.8	11.2
333.15 K, w2 = 0.004	1116.3	210.2
333.15 K, w2 = 0.011	1116.8	171.9
333.15 K, w2 = 0.02	1117.1	118.9
333.15 K, w2 = 0.029	1116.5	111.7
333.15 K, w2 = 0.045	1115.6	81.4
333.15 K, w2 = 0.066	1114.7	58
333.15 K, w2 = 0.077	1114.1	48.2
333.15 K, w2 = 0.121	1111.8	28.1
333.15 K, w2 = 0.167	1110	19
333.15 K, w2 = 0.218	1105.6	12.7
333.15 K, w2 = 0.24	1101.5	9.5
338.15 K, w2 = 0.004	1113.3	163.1
338.15 K, w2 = 0.011	1114	134.6
338.15 K, w2 = 0.02	1114.2	94.6
338.15 K, w2 = 0.029	1113.6	89
338.15 K, w2 = 0.045	1112.6	65.8
338.15 K, w2 = 0.066	1111.8	47.5
338.15 K, w2 = 0.077	1111.2	39.7
338.15 K, w2 = 0.121	1108.6	23.5
338.15 K, w2 = 0.167	1106.8	16.1
338.15 K, w2 = 0.218	1102.4	11
338.15 K, w2 = 0.24	1098.3	8.3
343.15 K, w2 = 0.004	1110.2	128.7
343.15 K, w2 = 0.011	1111	106.9
343.15 K, w2 = 0.02	1111.3	76.3
343.15 K, w2 = 0.029	1110.7	72
343.15 K, w2 = 0.045	1109.8	53.8
343.15 K, w2 = 0.066	1108.8	39.3
343.15 K, w2 = 0.077	1108.1	33.1
343.15 K, w2 = 0.121	1105.5	19.9
343.15 K, w2 = 0.167	1103.7	13.8
343.15 K, w2 = 0.218	1099.2	9.5
343.15 K, w2 = 0.24	1095	7.3

CCCCCC(=O)[O-].C[N+](C)(C)CCO [2-hydroxy-N,N,N-trimethylethanaminium hexanoate] + O
Settings	mass density, w2 = 0.058 [kg/m3]	mass density, w2 = 0.091 [kg/m3]	mass density, w2 = 0.161 [kg/m3]	mass density, w2 = 0.198 [kg/m3]	viscosity, w2 = 0.058 [mPa·s]	viscosity, w2 = 0.091 [mPa·s]	viscosity, w2 = 0.161 [mPa·s]	viscosity, w2 = 0.198 [mPa·s]
293.15 K	1018	1021	1026	1026	1187.4	640.3	202.1	166.8
298.15 K	1015	1018	1023	1023	831.9	462.6	151.2	125.3
303.15 K	1012	1015	1020	1021	598.1	340.7	114.8	95.6
308.15 K	1009	1012	1017	1018	439	255.5	88.6	74.1
313.15 K	1007	1009	1014	1015	328.4	195.3	69.7	58.4
318.15 K	1004	1006	1011	1012	249.1	150.8	55.1	46.4
323.15 K	1001	1003	1008	1009	192.3	118.4	44.3	37.5
328.15 K	998	1001	1005	1006	150.4	94.1	36.1	30.6
333.15 K	996	998	1003	1003	119.5	76	29.8	25.3
338.15 K	993	995	1000	1000	95.6	61.7	24.7	21
343.15 K	990	992	997	997	77.6	50.7	20.7	17.7
